Source: patent publication US20210038730A1, “PEPTIDE NANOFIBERS” (UNIVERSITY OF PORTSMOUTH HIGHER EDUCATION CORPORATION, priority 2018, published 2021)

Experiments:
in vitro = conditions: human, tissue homogenate
Method: (§1) Fresh blood, obtained from adult male Wistar rats, was collected in sterile the 170 I.U. lithium heparin-coated tubes (Vacutainer, BD Bioscience, UK). Blood was centrifuged immediately at 2,000 g for 15 minutes (4° C.) and supernatant was collected and diluted to 50% (v/v) with PBS. Livers and brains were obtained from adult male Wistar rats, and the tissues were blotted to dryness, weighed, sliced into pieces, and homogenised with ice-cold PBS (in 2 mL of buffer g^−1 of tissue) using the glass homogeniser. Then, tissue homogenates were centrifuged at 4,300 g for 1 hour (4° C.) and the supernatants collected. Glioblastoma cell homogenates were prepared using U-87 MG cells. Cells were cultured in Eagle's Minimum Essential Medium (EMEM) supplemented with 10% (v/v) heat-inactivated fetal bovine serum (FBS), 1% (v/v) of non-essential amino acids (NEAA) and 1 mM of sodium pyruvate in T75 flasks with a surface area of 75 cm^2 and maintained in a humidified atmosphere of 5% CO2 at 37° C. Breast cancer cell homogenates were prepared using MDA-MB-231 cells. Cells were cultured in Dulbecco's Modified Eagle Medium (DMEM) supplemented with high levels of glucose (4.5 g/L), 10% (v/v) heat-inactivated fetal bovine serum (FBS), 1% (v/v) of non-essential amino acids (NEAA) and penicillin and streptomycin (500 units/mL) in T75 flasks with a surface area of 75 cm^2 and maintained in a humidified atmosphere of 5% CO2 at 37° C. Media was changed for both cell lines every 3 to 4 days. After reaching confluence, cells were washed twice with Hank's Balanced Salt Solution (HBSS) and incubated with ˜2 mL of TrypLE Enzyme at 37° C. for ˜3 minutes. Then, complete media were added, and cells were centrifuged at 1,000 rpm for 5 minutes in C-28A centrifuge (Boeco, Germany). U-87 MG or MDA-MB-231 cells (˜10×10^6 cells mL^−1) were re-suspended in ice-cold PBS, and homogenised with a 2×5 second pulses with the probe sonicator (UP200S Ultrasonic processor, SciMed, 200 watts, amplitude of 60%). Cell debris were removed by centrifugation at 2,000 rpm for 5 minutes (Jouan B4i, Thermo Scientific, Paisley, UK). Supernatant was collected and stored at −80° C. Total protein concentration in the homogenates was determined using the Bradford assay with bovine serum albumin as a standard. Diluted plasma, tissue or cell homogenates were pre-warmed during ˜30 minutes at 37° C. Peptide stock solutions (Glu-GnRH, goserelin acetate and TPGnRH, 5 mM in PBS, 500 μL) were prepared and added to the homogenate solutions (120 μL). PAX-loaded nanofibers prepared at a ratio of 1:7.36 [PAX:TPGnRH consisting of 3 μmol (2.56 mg mL^−1) of PAX, 22.02 μmol (31.46 mg mL^−1) of TPGnRH], as previously described, and further diluted in PBS to achieve a concentration of 5 mM of TPGnRH and 500 nM of PAX (120 μL) were added to the homogenates. At various time intervals, an aliquot was collected (80 μL) and added to ice-cold ACN (80 μL) to quench the enzymatic activity. Samples were stored at −80° C. for at least 3 hours to maximise protein precipitation. Samples were vortexed for 15 minutes, centrifuged for 15 minutes at 12,000 rpm, and the supernatants were collected and analysed by RP-HPLC.

[1] = Enzymatic stability in rat plasma; conditions: 50% (v/v) rat plasma
Method: (§2) Fresh blood, obtained from adult male Wistar rats, was collected in sterile the 170 I.U. lithium heparin-coated tubes (Vacutainer, BD Bioscience, UK). Blood was centrifuged immediately at 2,000 g for 15 minutes (4° C.) and supernatant was collected and diluted to 50% (v/v) with PBS. Livers and brains were obtained from adult male Wistar rats, and the tissues were blotted to dryness, weighed, sliced into pieces, and homogenised with ice-cold PBS (in 2 mL of buffer g^−1 of tissue) using the glass homogeniser. Then, tissue homogenates were centrifuged at 4,300 g for 1 hour (4° C.) and the supernatants collected. Glioblastoma cell homogenates were prepared using U-87 MG cells. Cells were cultured in Eagle's Minimum Essential Medium (EMEM) supplemented with 10% (v/v) heat-inactivated fetal bovine serum (FBS), 1% (v/v) of non-essential amino acids (NEAA) and 1 mM of sodium pyruvate in T75 flasks with a surface area of 75 cm^2 and maintained in a humidified atmosphere of 5% CO2 at 37° C. Breast cancer cell homogenates were prepared using MDA-MB-231 cells. Cells were cultured in Dulbecco's Modified Eagle Medium (DMEM) supplemented with high levels of glucose (4.5 g/L), 10% (v/v) heat-inactivated fetal bovine serum (FBS), 1% (v/v) of non-essential amino acids (NEAA) and penicillin and streptomycin (500 units/mL) in T75 flasks with a surface area of 75 cm^2 and maintained in a humidified atmosphere of 5% CO2 at 37° C. Media was changed for both cell lines every 3 to 4 days. After reaching confluence, cells were washed twice with Hank's Balanced Salt Solution (HBSS) and incubated with ˜2 mL of TrypLE Enzyme at 37° C. for ˜3 minutes. Then, complete media were added, and cells were centrifuged at 1,000 rpm for 5 minutes in C-28A centrifuge (Boeco, Germany). U-87 MG or MDA-MB-231 cells (˜10×10^6 cells mL^−1) were re-suspended in ice-cold PBS, and homogenised with a 2×5 second pulses with the probe sonicator (UP200S Ultrasonic processor, SciMed, 200 watts, amplitude of 60%). Cell debris were removed by centrifugation at 2,000 rpm for 5 minutes (Jouan B4i, Thermo Scientific, Paisley, UK). Supernatant was collected and stored at −80° C. Total protein concentration in the homogenates was determined using the Bradford assay with bovine serum albumin as a standard. Diluted plasma, tissue or cell homogenates were pre-warmed during ˜30 minutes at 37° C. Peptide stock solutions (Glu-GnRH, goserelin acetate and TPGnRH, 5 mM in PBS, 500 μL) were prepared and added to the homogenate solutions (120 μL). […] Samples were vortexed for 15 minutes, centrifuged for 15 minutes at 12,000 rpm, and the supernatants were collected and analysed by RP-HPLC.

U-87 MG cells = test: Apoptosis (Annexin V-FITC); format: cell-based, human; conditions: >7 μM, every two days, 6 days of treatment
Method: In vitro antitumour effects of TPGnRH and PAX-loaded TPGnRH were assessed in U-87 MG cells, UP-007, UP-029, SEBTA-023 MDA-MD-231 [triple negative (ER^−, PR—, HER2^−) breast cancer cell line] and SK-OV-3 (human ovarian carcinoma with a low expression of GnRH-R). Cells were seeded at 1,400 cells/cm^2 and allowed to attach and grow for 3 days. In experiments with TPGnRH nanofibers alone (to obtain the IC50 value in each cell line), cells were treated with medium supplemented with the peptide solutions in PBS (0.7 to 700 μM) to achieve a final concentration of 0.07 to 70 μM per well. Media was replaced by fresh media every two days for 6 days. […] On day 4, PAX-loaded TPGnRH nanofibers containing 1 nM of PAX and 7 or 35 μM of TPGnRH were added and the effect on cell viability, proliferation, cell cycle, and apoptosis was assessed on day 6. Only for the MDA-MB-231 cells, on day 4, PAX-loaded TPGnRH nanofibers containing 10 nM of PAX and 7 or 35 μM of TPGnRH were added and the effect on cell viability, proliferation, cell cycle, and apoptosis was also assessed on day 6. […] Cell metabolic activity was measured using MTT assay. […] Afterwards, dimethyl sulfoxide (100 μL) was added to the wells to dissolve the formazan crystals and the absorbance was measured at 570 and 690 nm. […] Cells were incubated with BrdU for 24 hours before the end of the pre-determined time-points. […]

[2] = Enzymatic stability in MDA-MB-231 cell homogenates
Method: as §1

[3] = Enzymatic stability in rat brain homogenates; conditions: 50% (v/v) rat brain homogenates
Method: as §2

[4] = Enzymatic stability in U-87 MG cell homogenates; conditions: analyte in brackets of label
Method: Fresh blood, obtained from adult male Wistar rats, was collected in sterile the 170 I.U. lithium heparin-coated tubes (Vacutainer, BD Bioscience, UK). Blood was centrifuged immediately at 2,000 g for 15 minutes (4° C.) and supernatant was collected and diluted to 50% (v/v) with PBS. Livers and brains were obtained from adult male Wistar rats, and the tissues were blotted to dryness, weighed, sliced into pieces, and homogenised with ice-cold PBS (in 2 mL of buffer g^−1 of tissue) using the glass homogeniser. Then, tissue homogenates were centrifuged at 4,300 g for 1 hour (4° C.) and the supernatants collected. Glioblastoma cell homogenates were prepared using U-87 MG cells. Cells were cultured in Eagle's Minimum Essential Medium (EMEM) supplemented with 10% (v/v) heat-inactivated fetal bovine serum (FBS), 1% (v/v) of non-essential amino acids (NEAA) and 1 mM of sodium pyruvate in T75 flasks with a surface area of 75 cm^2 and maintained in a humidified atmosphere of 5% CO2 at 37° C. Breast cancer cell homogenates were prepared using MDA-MB-231 cells. Cells were cultured in Dulbecco's Modified Eagle Medium (DMEM) supplemented with high levels of glucose (4.5 g/L), 10% (v/v) heat-inactivated fetal bovine serum (FBS), 1% (v/v) of non-essential amino acids (NEAA) and penicillin and streptomycin (500 units/mL) in T75 flasks with a surface area of 75 cm^2 and maintained in a humidified atmosphere of 5% CO2 at 37° C. Media was changed for both cell lines every 3 to 4 days. After reaching confluence, cells were washed twice with Hank's Balanced Salt Solution (HBSS) and incubated with ˜2 mL of TrypLE Enzyme at 37° C. for ˜3 minutes. Then, complete media were added, and cells were centrifuged at 1,000 rpm for 5 minutes in C-28A centrifuge (Boeco, Germany). […] Total protein concentration in the homogenates was determined using the Bradford assay with bovine serum albumin as a standard. […] Samples were vortexed for 15 minutes, centrifuged for 15 minutes at 12,000 rpm, and the supernatants were collected and analysed by RP-HPLC.

SC-1800 cells = test: Cytotoxicity (MTT) in cerebral astrocytes; format: cell-based, human; conditions: 3.5-140 μM, 4 and 24 hours
Method: Human brain microvessel endothelial cells (hCMEC/D3) and cerebral astrocytes (SC-1800) were maintained in a humidified atmosphere of 5% CO2, and the medium was refreshed every 2-3 days. hCMEC/D3 cells were cultured in endothelial basal medium-2 (EBM-2) supplemented with the EGM-2 Bullet Kit and 2% (v/v) human serum. SC-1800 were cultured in astrocytes basal medium (ABM) supplemented with AGM Bullet Kit and 3% (v/v) human serum. […] Subsequently, complete growth medium (4 mL) was added and cells were centrifuged using a C-28A centrifuge (Boeco, Hamburg, Germany) at 1,000 rpm for 5 minutes. Supernatant was discarded, and pellet was re-suspended in 1 mL of medium. The cell number was counted using Trypan Blue Exclusion Assay in the Countess II Automated Cell Counter (Thermo Scientific, Paisley, UK). hCMEC/D3 and SC-1800 cells were seeded at 20,000 cells/cm^2 in complete medium and allowed to attach overnight. […] Cell metabolic activity was measured after 4 and 24 hours using (3-(4,5)-dimethylthiazol-2-yl)-2,5-diphenyltetrazolium bromide ([…]) assay. […] Subsequently, DMSO (100 μL) was added to dissolve the formazan crystals and absorbance was measured at 570 and 690 nm. Metabolic activity was calculated by subtracting the absorbance values at 690 nm to 570 nm to remove background, and dividing the values by the control to express as a percentage (%) of the control using the equation below. […]

[5] = human, MDA-MB-231 breast cancer cell homogenate

For CCCCCCCCCCCCCCCC(=O)Oc1ccc(C[C@H](NC(=O)[C@H](CO)NC(=O)[C@H](Cc2c[nH]c3ccccc23)NC(=O)[C@H](Cc2c[nH]cn2)NC(=O)[C@@H](N)CCC(=O)O)C(=O)NCC(=O)N[C@@H](CC(C)C)C(=O)N[C@@H](CCCNC(=N)N)C(=O)N2CCC[C@H]2C(=O)NCC(N)=O)cc1 [TPGnRH, Tyrosine (O-Palmitoyl)-Glu-GnRH], which half-life at 4.03 mM (in vitro) is on record?
Its half-life at 4.03 mM is 2.16 ± 0.364 days.

And the k ([1]; analyte in brackets of label)?
The k was 0.0937 min⁻¹.

And the remaining at 8 h, 4.03 mM ([1]; male, Wistar, rat)?
Its remaining at 8 h, 4.03 mM is over 80%.

What about the effect on apoptosis (U-87 MG cells) of the same compound?
Its effect on apoptosis is “trigger apoptosis”.

What about the Plateau ([2]; MDA-MB-231 cell homogenates) of the same compound?
The Plateau was 325.8 µg/mL.

And the k ([2]; MDA-MB-231 cell homogenates)?
The k was 2.224 min⁻¹.

And the AUC(0-t) at 4.03 mM [2, 5]?
The AUC(0-t) at 4.03 mM was 105000 µg·h/mL.

What about the C0 at 4.03 mM [2, 5] of the same compound?
The C0 at 4.03 mM was 710 µg/mL.

And the k ([3]; analyte in brackets of label)?
Its k is 0.1781 min⁻¹.

What about the remaining at 8 h, 4.03 mM ([3]; male, Wistar, rat) of the same compound?
The remaining at 8 h, 4.03 mM was over 80%.

And the k [4]?
Its k is 0.1781 min⁻¹.

What about the “cytotoxicity (metabolic activity, MTT)” value (SC-1800 cells) of the same compound?
Its value is “no cytotoxicity”.
